Assay results reported in patent US20130129675A1, “INTERFERON THERAPIES IN COMBINATION WITH BLOCKADE OF STAT3 ACTIVATION” (BOARD OF REGENTS, THE UNIVERSITY OF TEXAS SYSTEM, priority 2009, published 2013).

How the values were obtained:
[1] = system: B16 target cells (CD3+CD8+ T effector cells); assay: CD8+ T cell cytotoxicity assay against melanoma cells; assay type: cell-based, mice; details: WP1193 2 μM, IFN-α 20 ng/ml, 48 h, control 10.8
Protocol: Splenocytes were prepared as described above. NK1.1+CD3− NK effector cells or CD3+CD8+ T effector cells were sorted from splenocytes on a FACSAria Cell Sorter (BD Biosciences) with FITC-conjugated anti-mouse NK1.1 (eBioscience), PE-conjugated anti-CD3, and allophycocyanin (APC)-conjugated anti-CD8 antibodies (Miltenyi Biotec, Auburn, Calif.). B16 target cells were prepared as described above. The ratio of NK1.1+CD3− NK effector cells or CD8+ T effector cells to B16 target cells was 10:1 and 5:1, respectively. In the presence of NK1.1+CD3− NK cells or CD8+ T cells, treatment groups consisted of B16 target cells alone; B16 cells with 2 μM of WP1193; B16 cells with 20 ng/ml of IFN-α; B16 cells with 2 µM of WP1193 and 20 ng/ml of IFN-α. After 48 hours of incubation, the CFSE-labeled B16 melanoma cells were removed from the plates with trypsin and analyzed by FACS. Then, B16 cells were stained with PI (BD Biosciences) to distinguish viable cells from nonviable cells. B16 cells that were stained with CFSE and PI were considered nonviable. Flow cytometric acquisition of the B16 target cells was performed with a FACSCalibur flow cytometer (BD Biosciences), and data analysis was performed using FlowJo software (TreeStar). […]

Tregs (CD4+Foxp3+) = assay: Inhibition of Tregs in vivo; design: species or system mice; details: for number of Foxp3+ Tregs in the thymus, lymph nodes, or spleen: alone or in combination; for % of CD4+ Foxp3+ Cells: bone marrow, control 24.5; for % of CD4+ Foxp3+ Cells / inhibition of the number of Tregs (CD4+Foxp3+) in the bone marrow: non-tumor bearing mice treated for 16 days; for inhibition of the number of Tregs (CD4+Foxp3+) in the peripheral blood / inhibition of the number of Tregs (CD4+Foxp3+) in the bone marrow: compared with control
Protocol: Determination of inhibition of Tregs in vivo. […] Single-cell suspensions were prepared from bone marrows, lymph nodes, spleens, thymuses and peripheral blood of mice. Single cells were surface-stained by FITC-conjugated anti-CD4 (L3T4), PerCP-conjugated anti-CD8 (53-6.7) and APC-conjugated anti-CD25 (PC61), and the cells were further subjected to intracellular staining with PE-conjugated mAbs to mouse FoxP3 (clone FJK-16s; eBioscience, San Diego, Calif.) using staining buffers and conditions specified by the manufacturer.
In vivo treatment of mice with IFN-α and WP1193 inhibits bone marrow-derived Tregs but combinational therapy is not synergistic. To ascertain the in vivo effects of IFN-α and WP1193, and in combination on Tregs, non-tumor bearing mice were treated for 16 days.

serum cytokines = assay: Serum cytokine levels (Bio-Plex); assay type: in vivo, C57BL/6J mice; details: for IFN-gamma Concentration: control 1.5; for IL-1B Concentration: control 40.1; for TNF alpha Concentration: control 60.5
Protocol: Determination of serum cytokine levels. Groups of non-tumor bearing 4- to 6-week-old female mice were treated with either IFN-α or “empty” plasmid control, WP1193, or IFN-α in combination with WP1193 as described in FIG. 13. Blood was collected through a tail vein from mice 9 and 16 days after the first WP1193 administration. […] The assay was run according to the manufacturer's instruction (Bio-Rad) by the Immunology Core Service at MD Anderson Cancer Center (Houston, Tex.).
This experiment was reproduced twice in its entirety with identical findings.

B16 target cells = assay: Ex vivo splenocyte cytotoxicity assay; assay type: cell-based, mice; details: 48 h
From the text: Spleens from 4- to 6-week-old female mice in the above treatment schema were harvested and disassociated into a single cell suspension. After erythrocytes were lysed with 1×RBC lysis buffer (eBioscience), splenocytes were washed once with RPMI 1640 medium and were ready as effector cells for the standard cytotoxicity assay. Wang L, Yi T, Kortylewski M, Pardoll D M, Zeng D, Yu H, IL-17 Can Promote Tumor Growth Through An IL-6-Stat3 Signaling Pathway, J Exp Med 2009; 206:1457-64. For target cells, B16 cells in RPMI 1640 medium were cultured for 3 days, trypsinized, pelleted, and resuspended in FACS buffer at room temperature to achieve a concentration of 10^6 cells/ml. Carboxy-fluorescein diacetate succinimidyl ester (CFSE) stock solution (CellTrace CFSE Cell Proliferation Kit; Invitrogen, Eugene, Oreg.) was added to achieve a final concentration of 4 μM. The mixture was incubated at 37° C. for 10 minutes, and then the staining reaction was quenched by the addition of five volumes of ice-cold PBS for 5 minutes. The B16 cells were washed three times in RPMI 1640 medium and plated for the cytotoxicity assay. The ratios of splenocyte effector cells to B16 target cells were 30:1 and 100:1. After 48 h of incubation, the CFSE-labeled B16 melanoma cells were removed from the plates with trypsin-EDTA (0.05%) and analyzed by FACS. The B16 cells were stained with propidium iodide (PI; BD Biosciences) to distinguish viable cells from nonviable cells. B16 cells that were stained with CFSE and PI were considered nonviable. Flow cytometric acquisition of the B16 target cells was performed with a FACSCalibur flow cytometer (BD Biosciences), and data analysis was performed using FlowJo software (TreeStar, Ashland, Oreg.).
To ascertain the underlying in vivo immunological mechanism that is responsible for the therapeutic efficacy, we examined splenocytes cytotoxic responses directed against B16 melanoma cells. Splenocytes from control mice and mice treated with WP1193, IFN-α, or IFN-α+WP1193 were isolated and co-cultured with CFSE-labeled B16 target cells for 48 hours to assess splenocyte cytotoxicity against B16 cells. […] Furthermore, in mice treated with both IFN-α and WP1193, there was additive enhanced cytotoxic clearance of the B16 target cells compared with mice that were treated with either WP1193 or IFN-α alone (P<0.01;).

[2] = 30:1 ratio of splenocytes to B16 Tumor Cells, control 25.2
[3] = 100:1 ratio of splenocytes to B16 Tumor Cells, control 38.1

N#C/C(=C\c1cccc(Br)n1)C(=O)N[C@H](c1ccccc1)C1CC1 [WP1193, (S,E)-3-(6-bromopyridin-2-yl)-2-cyano-N-(cyclopropyl(phenyl)methyl)acrylamide]
% of B16 Killimg [1]: 11.2%
number of Foxp3+ Tregs in the thymus, lymph nodes, or spleen (Tregs (CD4+Foxp3+)): did not inhibit
% of CD4+ Foxp3+ Cells (Tregs (CD4+Foxp3+)): 16.8%
inhibition of the number of Tregs (CD4+Foxp3+) in the peripheral blood (Tregs (CD4+Foxp3+)): 20%
inhibition of the number of Tregs (CD4+Foxp3+) in the bone marrow (Tregs (CD4+Foxp3+)): 31%
IFN-gamma Concentration (serum cytokines): Not detected
IL-1B Concentration (serum cytokines): 20.0 pg/mL
TNF alpha Concentration (serum cytokines): 60.0 pg/mL
% of B16 Killimg (B16 target cells; [2]): 29.8%
% of B16 Killimg (B16 target cells; [3]): 42.0%

IFN-α
% of B16 Killimg [1]: 14.3%
suppressive activity of sorted Tregs (Tregs (CD4+Foxp3+); FoxP3-GFP reporter mouse, IFN-α-treated or control): did not see a decrease in the suppressive activity
number of Foxp3+ Tregs in the thymus, lymph nodes, or spleen (Tregs (CD4+Foxp3+)): did not inhibit
% of CD4+ Foxp3+ Cells (Tregs (CD4+Foxp3+)): 5.2%
inhibition of the number of Tregs (CD4+Foxp3+) in the peripheral blood (Tregs (CD4+Foxp3+)): 46%
inhibition of the number of Tregs (CD4+Foxp3+) in the bone marrow (Tregs (CD4+Foxp3+)): 78%
IFN-gamma Concentration (serum cytokines): 20.2 pg/mL
IL-1B Concentration (serum cytokines): 41.3 pg/mL
TNF alpha Concentration (serum cytokines): 98.7 pg/mL
% of B16 Killimg (B16 target cells; [2]): 40.1%
% of B16 Killimg (B16 target cells; [3]): 51.6%
